Test results taken from publication PMC8684500, “Substrate specificity of Chondroitinase ABC I based on analyses of biochemical reactions and crystal structures in complex with disaccharides” (Glycobiology, 2021).

How the values were obtained:
Assay in all cases: X-ray crystal structure, soaking, […] Å
Format in all cases: binding
[1] = target: T1, Chondroitinase ABC I (cABC-I) (Proteus vulgaris, UniProt P59807); settings: soaked at 100 mM; pH 7.5; two molecules in active site cleft
T1 construct: native purification from P. vulgaris cells (CSC as inducer); mature monomer, 997 residues; domains 25-234, 235-617, 618-1021
T1 sequence (P59807 25-1021): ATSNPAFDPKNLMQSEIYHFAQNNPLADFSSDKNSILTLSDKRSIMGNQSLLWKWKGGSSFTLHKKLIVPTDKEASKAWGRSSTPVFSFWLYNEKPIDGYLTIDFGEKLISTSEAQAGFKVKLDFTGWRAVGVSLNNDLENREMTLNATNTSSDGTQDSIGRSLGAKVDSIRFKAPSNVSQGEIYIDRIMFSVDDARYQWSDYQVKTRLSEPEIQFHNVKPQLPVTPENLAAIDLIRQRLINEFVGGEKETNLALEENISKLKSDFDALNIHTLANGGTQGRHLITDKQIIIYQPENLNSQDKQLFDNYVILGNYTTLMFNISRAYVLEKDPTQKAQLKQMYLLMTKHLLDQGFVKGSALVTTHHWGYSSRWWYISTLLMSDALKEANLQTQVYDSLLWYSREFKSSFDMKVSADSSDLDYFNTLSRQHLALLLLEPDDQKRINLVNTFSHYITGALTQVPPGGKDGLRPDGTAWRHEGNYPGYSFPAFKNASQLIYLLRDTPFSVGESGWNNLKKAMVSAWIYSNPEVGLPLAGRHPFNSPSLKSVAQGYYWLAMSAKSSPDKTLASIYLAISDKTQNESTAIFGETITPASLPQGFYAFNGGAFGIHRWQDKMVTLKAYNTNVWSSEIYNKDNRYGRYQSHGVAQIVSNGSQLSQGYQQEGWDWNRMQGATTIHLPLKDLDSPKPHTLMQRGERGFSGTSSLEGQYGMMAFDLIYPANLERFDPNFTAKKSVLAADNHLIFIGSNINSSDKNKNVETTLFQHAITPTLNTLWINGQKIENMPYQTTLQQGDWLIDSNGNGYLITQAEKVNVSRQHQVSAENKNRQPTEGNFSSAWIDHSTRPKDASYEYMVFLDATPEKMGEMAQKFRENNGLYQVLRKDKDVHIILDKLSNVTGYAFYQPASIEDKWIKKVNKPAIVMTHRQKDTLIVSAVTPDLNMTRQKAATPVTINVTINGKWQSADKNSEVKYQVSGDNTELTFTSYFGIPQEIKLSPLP

[2] = target: T1, Chondroitinase ABC I (cABC-I); settings: soaked at 100 mM; pH 7.5; three molecules in active site cleft
[3] = target: T1, Chondroitinase ABC I (cABC-I); settings: soaked at 100 mM; pH 7.5; two molecules in active site cleft; remark: listed apart in the source

Which “X-ray crystal structure, soaking, 2.50 Å” value [1] does the source give for CC(=O)N[C@H]1C(O)O[C@H](CO)[C@H](O)[C@@H]1O[C@@H]1OC(C(=O)O)=C[C@H](O)[C@H]1O (stereo partly drawn) [ΔDi-0S] here?
The value was 7EIS, cABC-I in complex with ΔDi-0S.

CC(=O)N[C@H]1C(O)O[C@H](CO)[C@H](OS(=O)(=O)O)[C@@H]1O[C@@H]1OC(C(=O)O)=C[C@H](O)[C@H]1O (stereo partly drawn) [ΔDi-4S] was tested. Which “X-ray crystal structure, soaking, 1.80 Å” value [2] did it give?
The value was 7EIQ, cABC-I in complex with ΔDi-4S.

With CC(=O)N[C@H]1C(O)O[C@H](COS(=O)(=O)O)[C@H](O)[C@@H]1O[C@@H]1OC(C(=O)O)=C[C@H](O)[C@H]1O (stereo partly drawn) [ΔDi-6S] as the compound, how does the “X-ray crystal structure, soaking, 1.92 Å” value [3] read?
The value was 7EIR, cABC-I in complex with ΔDi-6S.
